How the values were obtained:
SUMO-1 = biological target: T1, SUMO-1 (Homo sapiens, UniProt P63165); assay: sumo-1 antisense oligonucleotides, induction of HIF-1 in hypoxia; format: cell-based
T1 construct: endogenous in cells
From the text: Posttranslational SUMOlation influences HIF-1α regulated gene expression. In order to test that HIF-1 is SUMO-1 modified, we conducted experiments which indicated an association of HIF-1α both with endogenous as well as epitope (hexahistidine)-tagged SUMO-1 HIF-1α induction was rapid and was detected by immunopecipitating SUMO-1. To further investigate the impact of SUMOlation on HIF-1 conveyed gene expression, we designed antisense oligonucleotides AS31(SEQ ID NO: 22), AS64 (SEQ ID NO: 23), and AS617 (SEQ ID NO: 24) directed against SUMO-1. […] Thus, we were able to modify the HIF-1 conveyed hypoxia adaptive response by administration of sumo-1 antisense oligonucleotides.

KB cells = assay: Multicellular spheroid model, doxorubicin toxicity by BCECF labeling; format: cell-based; conditions: doxorubicin 1 μM
Procedure: Multicellular spheroid model: A multicellular spheroid model was developed using KB cells grown at high density of membrane permeable supports. Briefly, KB cells in suspension were plated at high density (˜10^7 cells/cm^2) on 0.33 cm^2 collagen-coated permeable supports (Corning-Costar, Cambridge, Ma.) and allowed to grow as domes on these substrates for two weeks. Media was replaced every other day and at two weeks, multicellular spheroids were subjected to a 24 or 48 hr period of hypoxia or normoxia, in the presence or absence of the P-glycoprotein substrate doxorubicin (1 μM final concentration) (Sigma, St Louis, Mo.). At the termination of the experiment, the number of viable, intact cells was determined by measurement of the amount of esterase cleavable fluorescent marker 2′7′-bis(carboxyethyl)-5(6)-carboxyfluorescein pentaacetoxymethyl ester (BCECF-AM, 5 μM final concentration Calbiochem, San Diego, Calif.) retained over a 30 min period, a sensitive measurement cytoxicity) (Wierda et al., J. Immunol. […] Multicellular spheroids were washed three times in HBSS and fluorescence intensity was measured on a fluorescent plate reader. […]

mdr1 gene = assay: Genechip expression array screen of epithelial cells for mdr1 induction; format: cell-based, human; conditions: T84 epithelial cells, exposure similar to hypoxia (6 and 18 hrs)
Procedure: Analysis of messenger RNA levels by RT-PCR: The transcriptional profile of epithelial cells exposed to ambient hypoxia was assessed in RNA derived from control or hypoxic epithelia (T84 cells at 6 or 18 hr hypoxia) using quantitative genechip expression arrays (Affymetrix, Inc., Santa Clara, Calif.) (Lockhart et al., Nat. Biotechnol., 14, 1675–1680, 1996). RT-PCR analysis of mRNA levels was performed using DNAse treated total RNA as previously described (Taylor et al., J. Biol. Chem., 274, 19447–19450, 1999) using primers specific for mdr1 (forward primer 5′-AACGGAAGCCAGAACATTCC-3′ (SEQ ID NO: 37) and reverse primer 5′-AGGCTTCCTGTGGCAAAGAG-3′ (SEQ ID NO: 38), 180 bp fragment), HIF-1α (forward primer 5′- CTCAAAGTCGGACAGCCTCA-3′ (SEQ ID NO: 39) and reverse primer 5′-CCCTGCAGTAGGTTTCTGCT -3′ (SEQ ID NO: 40), 460 bp fragment) or control β-actin (forward primer 5′-ATGACTTCCAAGCTGGCCGTGGCT-3′ (SEQ ID NO: 41) and antisense primer 5′-TCTCAGCCCTCTTCAAAAACTTCTC-3′ (SEQ ID NO: 42), 661 bp fragment). Each primer set was amplified using 25 cycles, unless otherwise noted, of 94° C. for 1 min, 60° C. for 2 min, 72° C. for 4 min, and a final extension of […] for 7 min. The PCR reactions were then visualized on a 1.5% agarose gel containing 5 μg/ml of ethidium bromide. […]

T1 sequence (P63165 1-97 limits assumed): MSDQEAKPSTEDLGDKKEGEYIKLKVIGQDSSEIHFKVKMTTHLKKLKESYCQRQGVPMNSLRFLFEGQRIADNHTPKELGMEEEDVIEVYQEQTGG

Molecule | induction of HIF-1 in hypoxia (SUMO-1) | other results
AS617: antisense oligonucleotide directed against SUMO-1 (antisense GTGACCTCTCTGTGCACACG; listed as DNA, chemistry not given here) | able to modify the induction of HIF-1 in hypoxia | 
AS64: antisense oligonucleotide directed against SUMO-1 (antisense CATGATGACGGTGGCTTCAC; listed as DNA, chemistry not given here) | able to modify the induction of HIF-1 in hypoxia | 
COc1cccc2c1C(=O)c1c(O)c3c(c(O)c1C2=O)C[C@@](O)(C(=O)CO)C[C@@H]3O[C@H]1C[C@H](N)[C@H](O)[C@H](C)O1 [doxorubicin] |  | degree of cell death (number of intact cells, BCECF labeling) (KB cells; 24 hr hypoxia vs normoxia, p<0.01): significantly decreased; degree of cell death (number of intact cells, BCECF labeling) (KB cells; 48 hr hypoxia vs normoxia, p<0.001): significantly decreased
AS31: antisense oligonucleotide directed against SUMO-1 (antisense CACAGCAGCGGCCTCGGGTA; chemistry not given here) | able to modify the induction of HIF-1 in hypoxia | 
IFN-γ: proinflammatory cytokine (protein, UniProt P01579 24-161, looked up) Interferon gamma: QDPYVKEAENLKKYFNAGHSDVADNGTLFLGILKNWKEESDRKIMQSQIVSFYFKLFKNFKDDQSIQKSVETIKEDMNVKFFNSNKKKRDDFEKLTNYSVTDLNVQRKAIHELIQVMAELSPAAKTGKRKRSQMLFRG |  | induction of mdr1 (mdr1 gene): did not induce mdr1

— patent US7105656B2, “Compositions and methods for treating hematologic malignancies and multiple drug resistance” (The Brigham and Women's Hospital, Inc., priority 2000, dated 2006)
